Each compound was assayed against full-length recombinant human FYN A (Homo sapiens (Human), UniProt P06241) (assay: ADP-Glo Kinase Assay of FYN kinase inhibition). Conditions: primary screen, initial compounds.
Assay type: biochemical
Method in brief: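 GST-tagged full-length FYN A (baculovirus, Sf9) at 3 pg preincubated 30 min RT with compound (10-point 3-fold series from 10 μM) in Tris pH 7.5/MgCl2 buffer. 12-mer tyrosine peptide plus 12.5 pmol ATP added, 90 min RT; ADP measured by ADP-Glo luminescence, IC50 from dose-response.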

full-length recombinant human FYN A, sequence (P06241 whole entry): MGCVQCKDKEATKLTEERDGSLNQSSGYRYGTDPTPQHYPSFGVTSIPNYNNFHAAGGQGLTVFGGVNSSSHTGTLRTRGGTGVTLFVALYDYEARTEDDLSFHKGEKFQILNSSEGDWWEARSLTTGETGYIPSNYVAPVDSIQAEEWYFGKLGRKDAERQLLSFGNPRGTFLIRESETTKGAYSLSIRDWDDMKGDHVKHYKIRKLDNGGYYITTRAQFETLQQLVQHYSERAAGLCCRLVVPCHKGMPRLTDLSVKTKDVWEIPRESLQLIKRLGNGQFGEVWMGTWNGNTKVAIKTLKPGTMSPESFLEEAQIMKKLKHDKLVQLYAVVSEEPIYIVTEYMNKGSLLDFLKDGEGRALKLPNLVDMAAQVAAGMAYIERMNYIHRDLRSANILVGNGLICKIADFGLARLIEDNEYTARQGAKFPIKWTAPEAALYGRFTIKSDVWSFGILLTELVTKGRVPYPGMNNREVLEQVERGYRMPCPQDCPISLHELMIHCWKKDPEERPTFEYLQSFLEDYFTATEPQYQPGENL

| IC50 | SMILES |
| --- | --- |
| 0.932 µM | COc1cncc(-c2cnc3sc(NCc4ccncc4)nn23)c1 [Compound 546, 5-(5-methoxy-3-pyridyl)-N-(4-pyridylmethyl) imidazo[2,1-b][1,3,4] thiadiazol-2-amine] |
| 4.06 µM | OC1CCC(Nc2nn3c(-c4ccc(F)c(Cl)c4)cnc3s2)CC1 (stereo not shown) [Compound 547, 4-[[5-(3-chloro-4-fluoro-phenyl)imidazo [2,1-b][1,3,4]thiadiazol-2-yl]amino] cyclohexanol] |
| 5.12 µM | COc1ccc(-c2cnc3sc(NCCc4ccc(S(N)(=O)=O)cc4)nn23)cc1OC [Compound 548, 4-[2-[[5-(3,4-dimethoxyphenyl)imidazo[2,1-b] [1,3,4]thiadiazol-2-yl]amino]ethyl]benzene-sulfonamide] |
| 2.5 µM | COc1ccc(-c2cc(NC(C)=O)c3ncc(-c4cccc(C(C)=O)c4)n3c2)c(OC)c1 [Compound 549, N-[3-(3-acetylphenyl)-6-(2,4-dimethoxy-phenyl)imidazo [1,2-a]pyridin-8-yl]acetamide] |
| 3.14 µM | COc1ccc(-c2cnc3sc(NCCc4ccncc4)nn23)cc1OC [Compound 550, 5-(3,4-dimethoxy-phenyl)-N-[2-(4-pyridyl)ethyl]imidazo [2,1-b][1,3,4] thiadiazol-2-amine] |
| 2.65 µM | c1cc(CNc2nn3c(-c4ccncc4)cnc3s2)ccn1 [Compound 551, 5-(4-pyridyl)-N-(4-pyridylmethyl) imidazo[2,1-b] [1,3,4]thiadiazol-2-amine] |
| 2.03 µM | COc1ccc(-c2cnc3sc(NCCc4ccncc4)nn23)cn1 [Compound 552, 5-(6-methoxy-3-pyridyl)-N-[2-(4-pyridyl)ethyl] imidazo[2,1-b] [1,3,4]thiadiazol-2-amine] |
| 1.88 µM | NS(=O)(=O)c1ccc(CCNc2nn3c(-c4cccnc4)cnc3s2)cc1 [Compound 553, 4-[2-[[5-(3-pyridyl)imidazo [2,1-d][1,3,4]thiadiazol-2-yl]amino]ethyl] benzene-sulfonamide] |
| 3.82 µM | c1csc(CNc2nn3c(-c4ccc(N5CCOCC5)cc4)cnc3s2)c1 [Compound 554, 5-(4-morpholino-phenyl)-N-(2-thienylmethyl) imidazo[2,1-b] [1,3,4]thiadiazol-2-amine] |
| 2.81 µM | COc1ccc(CNc2nn3c(-c4ccc(CO)cc4)cnc3s2)cc1 [Compound 555, [4-[2-[(4-methoxyphenyl)methylamino]imidazo[2,1-b] [1,3,4]thiadiazol-5-yl]phenyl] methanol] |
| 3.66 µM | Clc1ccc(-c2cnc3sc(NCc4cccnc4)nn23)cc1 [Compound 556, 5-(4-chlorophenyl)-N-(3-pyridylmethyl) imidazo[2,1-b] [1,3,4]thiadiazol-2-amine] |
| 1.32 µM | CC(=O)Nc1cccc(-c2cnc3sc(NCCc4ccncc4)nn23)c1 [Compound 557, N-[3-[2-[2-(4-pyridyl)ethyl-amino]imidazo [2,1-b][1,3,4]thiadiazol-5-yl]phenyl] acetamide] |
| 0.721 µM | CN(C)C(=O)c1cccc(-c2cnc3sc(NCCc4ccncc4)nn23)c1 [Compound 558, N,N-dimethyl-3-[2-[2-(4-pyridyl)ethyl-amino]imidazo [2,1-b][1,3,4]thiadiazol-5-yl]benzamide] |
| 1.78 µM | COc1ccc(CNc2nn3c(-c4ccc(O)c(OC)c4)cnc3s2)cc1 [Compound 559, 2-methoxy-4-[2-[(4-methoxy-phenyl)methyl-amino]imidazo [2,1-b][1,3,4]thiadiazol-5-yl]phenol] |
| 2.94 µM | COc1ccc(-c2cnc3sc(NCc4cccnc4)nn23)cn1 [Compound 560, 5-(6-methoxy-3-pyridyl)-N-(3-pyridylmethyl) imidazo[2,1-b] [1,3,4]thiadiazol-2-amine] |
| 4.82 µM | Fc1ccc(-c2cnc3sc(NCCN4CCOCC4)nn23)cc1Cl [Compound 561, 5-(3-chloro-4-fluoro-phenyl)-N-(2-morpholino-ethyl)imidazo [2,1-b][1,3,4] thiadiazol-2-amine] |
| 2.43 µM | c1cc(CCNc2nn3c(-c4ccncc4)cnc3s2)ccn1 [Compound 562] |
| 1.61 µM | COc1ccc(-c2cnc3sc(NC4CCC(O)CC4)nn23)cn1 (stereo not shown) [Compound 563, 4-[[5-(6-methoxy-3-pyridyl)imidazo[2,1-b] [1,3,4]thiadiazol-2-yl]amino] cyclohexanol] |
| 3 µM | CC(=O)c1ccc(-c2cnc3sc(NCCN4CCOCC4)nn23)s1 [Compound 564, 1-[5-[2-(2-morpholinoethyl-amino)imidazo [2,1-b][1,3,4]thiadiazol-5-yl]-2-thienyl] ethanone] |
| 1.58 µM | COc1ccccc1-c1cc(NC(C)=O)c2ncc(-c3cccc(C(C)=O)c3)n2c1 [Compound 565, N-[3-(3-acetylphenyl)-6-[2-methoxy-phenyl)imidazo [1,2-a]pyridin-8-yl]acetamide] |
| 2.86 µM | CS(=O)(=O)Nc1cccc(-c2cc(NC=O)c3ncc(-c4ccc(F)c(Cl)c4)n3c2)c1 [Compound 566, N-[3-(3-chloro-4-fluoro-phenyl)-6-[3-(methane-sulfonamido)phenyl]imidazo [1,2-a]pyridin-8-yl]formamide] |
| 3.62 µM | c1csc(CNc2nn3c(-c4ccncc4)cnc3s2)c1 [Compound 567, 5-(4-pyridyl)-N-(2-thienylmethyl) imidazo[2,1-b] [1,3,4]thiadiazol-2-amine] |
| 4.33 µM | CS(=O)(=O)Nc1cccc(-c2cnc3sc(NC4CCCCC4)nn23)c1 [Compound 568, N-[3-[2-(cyclohexylamino)imidazo[2,1-b] [1,3,4]thiadiazol-5-yl]phenyl] methane-sulfonamide] |

Continued, compound first:

| SMILES | IC50 |
| --- | --- |
| OCc1ccc(-c2ccnc3[nH]nc(-c4cccc(Cl)c4)c23)cc1 [Compound 526, [4-[3-(3-chlorophenyl)-1H-pyrazolo[3,4-b]pyridin-4-yl]phenyl] methanol] | 6.5 µM |
| OCc1cccc(-c2ccnc3[nH]nc(-c4ccc5c(c4)OCO5)c23)c1 [Compound 527, [3-[3-(1,3-benzodioxol-5-yl)-1H-pyrazolo[3,4-b]pyridin-4-yl]phenyl] methanol] | 3.09 µM |
| c1ccc(-c2n[nH]c3nccc(-c4ccoc4)c23)cc1 [Compound 528, 4-(3-furyl)-3-phenyl-1H-pyrazolo[3,4-b]pyridine] | 8.63 µM |
| COc1ccc(-c2ccnc3[nH]nc(-c4cc(OC)c(OC)c(OC)c4)c23)cn1 [Compound 529, 4-(6-methoxy-3-pyridyl)-3-(3,4,5-trimethoxy-phenyl)-1H-pyrazolo[3,4-b]pyridine] | 16.9 µM |
| c1coc(-c2ccnc3[nH]nc(C4CC4)c23)c1 [Compound 530, 3-cyclopropyl-4-(2-furyl)-1H-pyrazolo[3,4-b]pyridine] | 12.6 µM |
| COc1ccccc1-c1n[nH]c2nccc(-c3ccco3)c12 [Compound 531, 4-(2-furyl)-3-(2-methoxyphenyl)-1H-pyrazolo[3,4-b]pyridine] | 2.28 µM |
| COc1ccccc1-c1n[nH]c2nccc(-c3ccc(CO)cc3)c12 [Compound 532, [4-[3-(2-methoxyphenyl)-1H-pyrazolo[3,4-b]pyridin-4-yl]phenyl] methanol] | 1.1 µM |
| COc1ccccc1-c1n[nH]c2nccc(-c3cccc(C(C)=O)c3)c12 [Compound 533, 1-[3-[3-(2-methoxyphenyl)-1H-pyrazolo[3,4-b]pyridin-4-yl]phenyl] ethanone] | 6.6 µM |
| c1cc(-c2n[nH]c3nccc(-c4ccoc4)c23)ccn1 [Compound 534, 4-(3-furyl)-3-(4-pyridyl)-1H-pyrazolo[3,4-b]pyridine] | 20.2 µM |
| Nc1cccc(-c2ccnc3[nH]nc(-c4cccc(F)c4)c23)c1 [Compound 535, 3-[3-(3-fluorophenyl)-1H-pyrazolo[3,4-b]pyridin-4-yl]aniline] | 15.1 µM |
| NC(=O)c1cccc(-c2ccnc3[nH]nc(-c4ccccc4)c23)c1 [Compound 536, 3-(3-phenyl-1H-pyrazolo[3,4-b]pyridin-4-yl)benzamide] | 11.7 µM |
| COc1cc(-c2n[nH]c3nccc(-c4cccc(N)c4)c23)cc(OC)c1OC [Compound 537, 3-[3-(3,4,5-trimethoxy-phenyl)-1H-pyrazolo[3,4-b]pyridin-4-yl]aniline] | 14.8 µM |
| COc1cc(-c2n[nH]c3nccc(-c4cccc(F)c4)c23)cc(OC)c1OC [Compound 538, 4-(3-fluorophenyl)-3-(3,4,5-trimethoxy-phenyl)-1H-pyrazolo[3,4-b]pyridine] | 5.23 µM |
| O=C(O)/C=C/c1cccc(-c2cnn3ccc(NCc4cccnc4)nc23)c1 [Compound 539, (E)-3-[3-[5-(3-pyridylmethyl-amino)pyrazolo [1,5-a]pyrimidin-3-yl]phenyl]prop-2-enoic acid] | 2.27 µM |
| COc1cc(-c2cc(-c3cccc(C(N)=O)c3)cnc2N)cc(OC)c1OC [Compound 540, 3-[6-amino-5-(3,4,5-trimethoxy-phenyl)-3-pyridyl] benzamide] | 0.442 µM |
| CC(=O)c1ccc(-c2cnc(N)c(-c3cccc(N(C)C)c3)c2)s1 [Compound 541, 1-[5-[6-amino-5-[3-(dimethyl-amino)phenyl]-3-pyridyl]-2-thienyl]ethanone] | 3.42 µM |
| CNc1ccc2ncc(/C=C\CCCO)n2n1 [Compound 542, (Z)-5-[6-(methylamino)imidazo[1,2-b]pyridazin-3-yl]pent-4-en-1-ol] | 31.5 µM |
| COc1cc(-c2cnc3sc(NCC4CCOCC4)nn23)ccc1O [Compound 543, 2-methoxy-4-[2-(tetrahydropyran-4-ylmethyl-amino)imidazo [2,1-b][1,3,4]thiadiazo-5-yl]phenol] | 2.16 µM |
| COc1ccc(-c2cnc3c(NC(C)=O)cc(-c4cccc(NC(C)=O)c4)cn23)cc1OC [Compound 544, N-[3-[8-acetamido-3-(3,4-dimethoxy-phenyl)imidazo [1,2-a]pyridin-6-yl]phenyl] acetamide] | 1.6 µM |
| COc1cccc(-c2cc(NC(C)=O)c3ncc(-c4cccc(C(C)=O)c4)n3c2)c1 [Compound 545, N-[3-(3-acetylphenyl)-6-[3-methoxy-phenyl)imidazo [1,2-a]pyridin-8-yl]acetamide] | 3.05 µM |
